# Experimental data as given in PubChem BioAssay AID488870 (Broad Institute, 2010).
# The source made the active and inactive calls.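 The calls were made as follows: active = a drop in nitrite signal whose fitted half-maximal concentration is at most ten times the top tested dose; inconclusive = flat fit with 30 to 70% inhibition, or poor curve fit; inactive = the rest.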
# Assay: suppression of NO production in INS-1E cells – cell-based, Griess absorbance, dry powder, set 3, dose response (AID 488870)
# Details: INS-1E cytokine-induced nitrite, Griess absorbance, 48 h; at 19.5 µM (top of the series)
row,Structure (SMILES),"activity change, negative = inhibition"
1,COc1ccc(S(=O)(=O)N(C)C[C@@H]2Oc3c(NC(=O)C4CC4)cccc3C(=O)N([C@@H](C)CO)C[C@H]2C)cc1,-4.99% (inactive)
2,COc1ccc(S(=O)(=O)N(C)C[C@@H]2Oc3c(NS(=O)(=O)c4ccccc4)cccc3C(=O)N([C@@H](C)CO)C[C@H]2C)cc1,2.87% (inactive)
3,COc1ccc(S(=O)(=O)N(C)C[C@@H]2Oc3c(NC(=O)C4CCOCC4)cccc3C(=O)N([C@@H](C)CO)C[C@H]2C)cc1,5.9% (inactive)
4,C[C@@H]1CN([C@@H](C)CO)C(=O)c2cccc(NC(=O)Nc3cccc4ccccc34)c2O[C@H]1CN(C)S(=O)(=O)c1ccccc1,-19.1% (inactive)
5,Cc1ccc(S(=O)(=O)N(C)C[C@@H]2Oc3c(NC(=O)Nc4ccccc4)cccc3C(=O)N([C@H](C)CO)C[C@H]2C)cc1,11.6% (inactive)
6,COc1ccc(S(=O)(=O)N(C)C[C@@H]2Oc3c(NS(=O)(=O)c4ccc(Cl)cc4)cccc3C(=O)N([C@@H](C)CO)C[C@H]2C)cc1,-7.18% (inactive)
7,C[C@@H]1CN([C@@H](C)CO)C(=O)c2cccc(NC(=O)Nc3cccc4ccccc34)c2O[C@H]1CN(C)S(=O)(=O)c1ccc2c(c1)oc(=O)n2C,-7.4% (inactive)
8,COc1ccc(S(=O)(=O)N(C)C[C@@H]2Oc3c(cccc3N(C)C)C(=O)N([C@@H](C)CO)C[C@H]2C)cc1,4.92% (inactive)
9,COc1ccc(NC(=O)Nc2cccc3c2O[C@@H](CN(C)S(=O)(=O)c2ccc(OC)cc2)[C@H](C)CN([C@@H](C)CO)C3=O)cc1,-3.9% (inactive)
10,COc1ccc(S(=O)(=O)N(C)C[C@@H]2Oc3c(NC(=O)Nc4ccc(C(F)(F)F)cc4)cccc3C(=O)N([C@@H](C)CO)C[C@H]2C)cc1,-18.3% (inactive)
11,COc1ccc(S(=O)(=O)N(C)C[C@@H]2Oc3c(NC(=O)c4cc(C)nn4C)cccc3C(=O)N([C@@H](C)CO)C[C@H]2C)cc1,-2.17% (inactive)
12,COc1ccc(S(=O)(=O)N(C)C[C@@H]2Oc3c(NC(=O)c4cccc5ccccc45)cccc3C(=O)N([C@@H](C)CO)C[C@H]2C)cc1,-13.8% (inactive)
13,COc1ccc(S(=O)(=O)N(C)C[C@@H]2Oc3c(NC(=O)Nc4ccccc4)cccc3C(=O)N([C@H](C)CO)C[C@H]2C)cc1,-11% (inactive)
14,COc1ccc(S(=O)(=O)N(C)C[C@@H]2Oc3c(NC(=O)Nc4ccc(F)cc4)cccc3C(=O)N([C@H](C)CO)C[C@H]2C)cc1,20.3% (inactive)
15,C[C@@H]1CN([C@@H](C)CO)C(=O)c2cccc(NC(=O)Nc3ccccc3)c2O[C@H]1CN(C)S(=O)(=O)c1ccc(F)cc1,-6.44% (inactive)
16,C[C@@H]1CN([C@@H](C)CO)C(=O)c2cccc(NC(=O)Nc3cccc4ccccc34)c2O[C@H]1CN(C)S(=O)(=O)c1cn(C)cn1,-10.7% (inactive)
17,COc1ccc(S(=O)(=O)N(C)C[C@@H]2Oc3c(NC(=O)Nc4cccc5ccccc45)cccc3C(=O)N([C@H](C)CO)C[C@@H]2C)cc1,3.88% (inactive)
18,COc1ccc(S(=O)(=O)N(C)C[C@@H]2Oc3c(NC(=O)Nc4ccc5c(c4)OCO5)cccc3C(=O)N([C@@H](C)CO)C[C@H]2C)cc1,-8.76% (inactive)
19,C[C@@H]1CN([C@@H](C)CO)C(=O)c2cccc(NC(=O)Nc3cccc4ccccc34)c2O[C@H]1CN(C)S(=O)(=O)c1ccc(Cl)cc1,-22.9% (inactive)
20,COc1ccc(S(=O)(=O)N(C)C[C@@H]2Oc3c(NC(=O)Nc4cccc5ccccc45)cccc3C(=O)N([C@@H](C)CO)C[C@H]2C)cc1OC,-18.5% (inactive)

row,Structure (SMILES),"activity change, negative = inhibition"
1,C[C@@H]1CN([C@H](C)CO)C(=O)c2cccc(NC(=O)Nc3ccccc3)c2O[C@H]1CN(C)S(=O)(=O)c1ccc(Cl)cc1,4.79% (inactive)
2,COc1ccc(S(=O)(=O)N(C)C[C@@H]2Oc3c(NC(=O)c4cnccn4)cccc3C(=O)N([C@@H](C)CO)C[C@H]2C)cc1,-9.05% (inactive)
3,C[C@@H]1CN([C@@H](C)CO)C(=O)c2cccc(NC(=O)Nc3ccc(F)cc3)c2O[C@H]1CN(C)S(=O)(=O)c1ccc(F)cc1,-6.48% (inactive)
4,COc1ccc(S(=O)(=O)N(C)C[C@@H]2Oc3c(NC(=O)Nc4ccccc4)cccc3C(=O)N([C@@H](C)CO)C[C@H]2C)cc1,-7.93% (inactive)
5,COc1ccc(S(=O)(=O)N(C)C[C@H]2Oc3c(NC(=O)Nc4cccc5ccccc45)cccc3C(=O)N([C@@H](C)CO)C[C@@H]2C)cc1,-9.04% (inactive)
6,Cc1ccc(S(=O)(=O)N(C)C[C@@H]2Oc3c(NC(=O)Nc4ccccc4)cccc3C(=O)N([C@@H](C)CO)C[C@H]2C)cc1,-10.1% (inactive)
7,Cc1ccc(S(=O)(=O)N(C)C[C@@H]2Oc3c(NC(=O)Nc4ccc(F)cc4)cccc3C(=O)N([C@@H](C)CO)C[C@H]2C)cc1,-6.25% (inactive)
8,COc1ccc(S(=O)(=O)N(C)C[C@@H]2Oc3c(NS(=O)(=O)c4cn(C)cn4)cccc3C(=O)N([C@@H](C)CO)C[C@H]2C)cc1,4.99% (inactive)
9,COc1ccc(S(=O)(=O)N(C)C[C@@H]2Oc3c(NS(=O)(=O)c4ccc(C)cc4)cccc3C(=O)N([C@@H](C)CO)C[C@H]2C)cc1,-5.68% (inactive)
10,C[C@@H]1CN([C@@H](C)CO)C(=O)c2cccc(NC(=O)Nc3cccc4ccccc34)c2O[C@H]1CN(C)CC1CC1,-0.187% (inactive)
11,COc1ccc(S(=O)(=O)N(C)C[C@@H]2Oc3c(NC(=O)Nc4ccc(F)cc4)cccc3C(=O)N([C@@H](C)CO)C[C@H]2C)cc1,-7.65% (inactive)
12,C[C@@H]1CN([C@@H](C)CO)C(=O)c2cccc(NC(=O)Nc3cccc4ccccc34)c2O[C@H]1CN(C)S(C)(=O)=O,9.52% (inactive)
13,COc1ccc(S(=O)(=O)Nc2cccc3c2O[C@@H](CN(C)S(=O)(=O)c2ccc(OC)cc2)[C@H](C)CN([C@@H](C)CO)C3=O)cc1,-10.4% (inactive)
14,COc1ccc(S(=O)(=O)N(C)C[C@@H]2Oc3c(NC(=O)c4ccncc4)cccc3C(=O)N([C@@H](C)CO)C[C@H]2C)cc1,-12.3% (inactive)
15,COc1ccc(S(=O)(=O)N(C)C[C@@H]2Oc3ccc(NC(=O)Nc4cccc5ccccc45)cc3C(=O)N([C@@H](C)CO)C[C@H]2C)cc1,-15.4% (inactive)
16,C[C@@H]1CN([C@@H](C)CO)C(=O)c2cccc(NC(=O)Nc3cccc4ccccc34)c2O[C@H]1CN(C)S(=O)(=O)c1cccs1,-14.1% (inactive)
17,COc1ccc(S(=O)(=O)N(C)C[C@@H]2Oc3c(NS(C)(=O)=O)cccc3C(=O)N([C@@H](C)CO)C[C@H]2C)cc1,-4.1% (inactive)
18,C[C@H]1CN([C@@H](C)CO)C(=O)c2cccc(NC(=O)NC3CCCCC3)c2O[C@@H]1CN(C)S(C)(=O)=O,3.92% (inactive)
19,C[C@@H]1CN([C@H](C)CO)C(=O)c2cccc(NC(=O)Nc3ccc(F)cc3)c2O[C@H]1CN(C)S(=O)(=O)c1ccc(Cl)cc1,-5.33% (inactive)
20,COc1ccc(S(=O)(=O)N(C)C[C@@H]2Oc3c(NC(=O)NC(C)C)cccc3C(=O)N([C@@H](C)CO)C[C@H]2C)cc1,7.35% (inactive)
